From PMC8119466, “A screen of FDA-approved drugs identifies inhibitors of protein tyrosine phosphatase 4A3 (PTP4A3 or PRL-3)” (Scientific Reports, 2021)
Where a name gives a salt, the structure may show the parent alone. Read-outs that look alike come from different tables or passages of the source.

Key:
Format in all cases: biochemical
[1] = target: T1, recombinant PRL-1 (Homo sapiens, UniProt Q93096); test: In vitro phosphatase assay (DiFMUP hydrolysis), PRL-1; note: test concentration or dose not given here
T1 construct: 6xHis (N, cleaved yes); made in house; host or cells: E. coli One Shot BL21 Star
T1 sequence (Q93096 1-173): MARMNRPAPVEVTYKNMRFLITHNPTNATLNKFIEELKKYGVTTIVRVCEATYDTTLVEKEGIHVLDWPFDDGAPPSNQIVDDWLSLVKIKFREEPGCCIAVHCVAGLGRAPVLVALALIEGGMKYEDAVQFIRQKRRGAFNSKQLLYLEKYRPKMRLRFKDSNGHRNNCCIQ

[2] = target: T2, recombinant PRL-2 (Homo sapiens, UniProt Q12974); test: In vitro phosphatase assay (DiFMUP hydrolysis), PRL-2;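 note: PRL-2 activity read as DiFMUP hydrolysis after 20 min at room temperature with drug, enzyme first pre-reduced at 4 °C for 20 min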
T2 construct: 6xHis (N, cleaved yes); made in house; host or cells: E. coli One Shot BL21 Star
T2 sequence (Q12974 1-167): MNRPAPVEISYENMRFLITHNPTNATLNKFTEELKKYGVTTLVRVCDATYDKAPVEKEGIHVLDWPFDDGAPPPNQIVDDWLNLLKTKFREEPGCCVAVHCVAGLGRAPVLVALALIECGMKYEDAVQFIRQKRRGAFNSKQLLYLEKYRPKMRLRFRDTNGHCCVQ

[3] = target: T3, recombinant PRL-3 (Homo sapiens, UniProt O75365); test: In vitro phosphatase assay (DiFMUP hydrolysis), PRL-3; note: test concentration or dose not given here
T3 construct: 6xHis (N, cleaved yes); made in house; host or cells: E. coli One Shot BL21 Star
T3 sequence (O75365 whole entry): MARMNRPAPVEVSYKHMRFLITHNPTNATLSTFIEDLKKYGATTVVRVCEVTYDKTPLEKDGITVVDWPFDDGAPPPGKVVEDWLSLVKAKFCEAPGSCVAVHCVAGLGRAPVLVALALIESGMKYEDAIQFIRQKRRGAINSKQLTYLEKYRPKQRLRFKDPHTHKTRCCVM

[4] = FDA-approved drug screen, compared to DMSO

| SMILES | % Phosphatase Activity (compared to DMSO) PRL-1 [1, 4] | % Phosphatase Activity (compared to DMSO) PRL-2 [2, 4] | % Phosphatase Activity (compared to DMSO) PRL-3 [3, 4] | % Phosphatase Activity (compared to DMSO) PRL-1 [1] | % Phosphatase Activity (compared to DMSO) PRL-2 [2] | % Phosphatase Activity (compared to DMSO) PRL-3 [3] |
| --- | --- | --- | --- | --- | --- | --- |
| COc1ccc2[n-]c([S+]([O-])Cc3ncc(C)c(OC)c3C)nc2c1.COc1ccc2[n-]c([S+]([O-])Cc3ncc(C)c(OC)c3C)nc2c1.[Mg+2] (stereo not drawn) [Esomeprazole Magnesium] | 84% | 88% | 93% | – | – | – |
| COc1ccc2[n-]c([S@@+]([O-])Cc3ncc(C)c(OC)c3C)nc2c1.[Na+] [Esomeprazole Sodium] | 112% | 124% | 92% | – | – | – |
| C[C@]12CC[C@@H]3c4ccc(OC(=O)c5ccccc5)cc4CC[C@H]3[C@@H]1CC[C@@H]2O [Estradiol Benzoate] | 110% | 117% | 91% | – | – | – |
| C[C@]12CC[C@@H]3c4ccc(O)cc4CC[C@H]3[C@@H]1CC[C@@H]2OC(=O)CCC1CCCC1 [Estradiol Cypionate] | 96% | 109% | 74% | – | – | – |
| CCCCC(=O)O[C@H]1CC[C@H]2[C@@H]3CCc4cc(O)ccc4[C@H]3CC[C@]12C [Estradiol valerate] | 103% | 99% | 85% | – | – | – |
| C[C@]12CC[C@@H]3c4ccc(O)cc4CC[C@H]3[C@@H]1CC[C@@H]2O [Estradiol] | 92% | 113% | 84% | – | – | – |
| C[C@]12CC[C@@H]3c4ccc(O)cc4CC[C@H]3[C@@H]1C[C@@H](O)[C@@H]2O [Estriol] | 117% | 111% | 79% | – | – | – |
| C[C@]12CC[C@@H]3c4ccc(O)cc4CC[C@H]3[C@@H]1CCC2=O [Estrone] | 107% | 87% | 76% | – | – | – |
| CCOc1ccc2nc3cc(N)ccc3c(N)c2c1 [Ethacridine lactate monohydrate] | 246% | 215% | 201% | – | – | – |
| CC[C@@H](CO)NCCN[C@@H](CC)CO [Ethambutol HCl] | 99% | 111% | 93% | – | – | – |
| O=S(=O)(O)c1cc(O)ccc1O [Ethamsylate] | 96% | 99% | 71% | – | – | – |
| C#C[C@]1(O)CC[C@H]2[C@@H]3CCc4cc(O)ccc4[C@H]3CC[C@@]21C [Ethinyl Estradiol] | 99% | 99% | 75% | – | – | – |
| CCc1cc(C(N)=S)ccn1 [Ethionamide] | – | – | – | 91% | 101% | 91% |
| CCC1(C)CC(=O)NC1=O (stereo not drawn) [Ethosuximide] | 95% | 104% | 79% | – | – | – |
| CCOC(=O)c1ccc(O)cc1 [Ethylparaben] | 105% | 100% | 92% | – | – | – |
| C#C[C@]1(OC(C)=O)CC[C@H]2[C@@H]3CCC4=C[C@@H](OC(C)=O)CC[C@@H]4[C@H]3CC[C@@]21C [Ethynodiol diacetate] | 93% | 112% | 88% | – | – | – |
| CC(O)(P(=O)(O)O)P(=O)(O)O [Etidronate] | 102% | 100% | 91% | – | – | – |
| CCc1cccc2c3c([nH]c12)C(CC)(CC(=O)O)OCC3 (stereo not drawn) [Etodolac] | 96% | 104% | 72% | – | – | – |
| CCOC(=O)c1cncn1[C@H](C)c1ccccc1 [Etomidate] | 98% | 91% | 79% | – | – | – |
